Test results from US9314485B2, “Use of PI3K M-TOR and AKT inhibitors to induce FOXP3 expression and generate regulatory T cells” (Medical Research Council, priority 2006, dated 2016).

Key:
[1] = system: naive CD62LhiCD4+CD25− LN T cells; assay: Foxp3 induction in newly activated naive CD4 T cells (intracellular staining); format: cell-based, mouse; conditions: for number of cell divisions (CFSE): 24-48 hours after addition at 18 hours; for % Foxp3+ cells, activation with anti-TCR only: no costimulation; for % Foxp3+ cells, activation with anti-TCR only / % Foxp3+ cells, activation with anti-TCR + anti-CD28: average of two experiments; for % Foxp3+ cells, activation with anti-TCR + anti-CD28: with costimulation
Description: Mouse strains, cell sorting and culture Animal work was carried out according the Animals (Scientific Procedures) Act, UK. Lymph node (LN) cells were stained, analysed and sorted by flow cytometry as described (Cobb et al 2005 J. Exp. Med. 201: 1367-1373). Intracellular staining for Foxp3 protein was done as advised by the manufacturers (eBiosciences.com). The phosphorylation syatus of S6 ribosomal protein was determined using anti pS6 Ser235/236 (Cellsignaling cat.no. 2211, http://www.cellsignal.com) using the eBioscience Foxp3 staining kit and anti rabbit IgG-FITC or IgG-Cy5 (Jackson Immunoresearch). For induction of Foxp3 expression, sorted LN CD4+ CD25− CD62Lhi T cells were cultured at 1-3×10^6/ml with plate bound anti-TCRβ. […] After 18 hours the cells were either left in place for continued TCR stimulation or moved to uncoated wells with the indicated additives. To assess regulatory function, CD4 T cells cultured as indicated were titrated into round bottom wells containing either 1×10^5 CFSE labeled total LN cells or 5×10^4 CFSE labeled CD4^+ CD25^− T cells and 1×10^5 mitomycin-C treated (25 μg/ml, 20 min, 37° C.) T cell depleted splenocytes with the indicated concentrations of anti CD3 (2C11, Pharmingen). CD4 T cell CFSE profiles were recorded between 48 and 72 hours later.
Mice, Cell Sorting and Culture. Animal work was carried out according to the Animals (Scientific Procedures) Act, UK. Lymph node (LN) cells or thymocytes from wild type were stained, analysed and sorted by flow cytometry as described (Thompson et al., 2007 Immunity VoI 26 pp 335-344) from wild type (C57BL/6, BALB/c or C57BL/6×129) mice or from Rag1 deficient H2^b AND TCR transgenic mice. Antigen presenting cells were derived from bone marrow in the presence of GM-CSF and incubated with antigenic peptide. Intracellular staining for Foxp3 protein was done as advised by the manufacturers (eBiosciences.com). The phosphorylation status of S6 ribosomal protein was determined using anti pS6 Ser235/236 (Cell Signaling cat.no. 2211, http://www.cellsignal.com) using the eBioscience Foxp3 staining kit and anti rabbit IgG-FITC or IgG-Cy5 (Jackson ImmunoResearch). […] After 18 hours the cells were either left in place for continued TCR stimulation or moved to uncoated wells with the indicated additives. To assess regulatory function, CD4 T cells cultured as indicated were titrated into round bottom wells containing either 1×10^5 CFSE labeled total LN cells or 5×10^4 CFSE labeled CD4^+CD25^− T cells and 1×10^5 mitomycin-C treated (25 μg/ml, 20 min, 37° C.) T cell depleted splenocytes with the indicated concentrations of anti CD3 (2C11, Pharmingen). CD4 T cell CFSE profiles were recorded between 48 and 72 hours later.

S6 ribosomal protein = S6 ribosomal protein phosphorylation (pS6) by intracellular staining/immunoblot; format: cell-based, mouse; conditions: 18 h activated cells; rapamycin 25 nM, Ly294002 10 g/ml as printed; within one hour
Description: Mouse strains, cell sorting and culture Animal work was carried out according the Animals (Scientific Procedures) Act, UK. Lymph node (LN) cells were stained, analysed and sorted by flow cytometry as described (Cobb et al 2005 J. Exp. Med. 201: 1367-1373). Intracellular staining for Foxp3 protein was done as advised by the manufacturers (eBiosciences.com). The phosphorylation syatus of S6 ribosomal protein was determined using anti pS6 Ser235/236 (Cellsignaling cat.no. 2211, http://www.cellsignal.com) using the eBioscience Foxp3 staining kit and anti rabbit IgG-FITC or IgG-Cy5 (Jackson Immunoresearch). […] CD4 T cell CFSE profiles were recorded between 48 and 72 hours later.
To monitor the activity of the PI3K/mTOR axis in response to TCR signaling, TCR signal withdrawal and treatment with rapamycin and Ly294002, we analysed the level of phosphorylated S6 ribosomal protein (pS6), the target of p70 S6 kinase, which is directly regulated by mTOR. […]
Mice, Cell Sorting and Culture. […] Lymph node (LN) cells or thymocytes from wild type were stained, analysed and sorted by flow cytometry as described (Thompson et al., 2007 Immunity VoI 26 pp 335-344) from wild type (C57BL/6, BALB/c or C57BL/6×129) mice or from Rag1 deficient H2^b AND TCR transgenic mice. […] CD4 T cell CFSE profiles were recorded between 48 and 72 hours later.

## O=c1cc(N2CCOCC2)oc2c(-c3ccccc3)cccc12 [Ly294002, 2-(4-Morpholinyl)-8-phenyl-4H-1-benzopyran-4-one]
[1]
  number of cell divisions (CFSE): slight reduction
  % Foxp3+ cells, activation with anti-TCR only: 4%
  % Foxp3+ cells, activation with anti-TCR + anti-CD28: 44%
[1]; listed as LY294002
  number of cell divisions (CFSE): slightly reduced
  % Foxp3+ cells, activation with anti-TCR only: 4% Foxp3^+
  % Foxp3+ cells, activation with anti-TCR + anti-CD28: 44% Foxp3^+
[1]; added 18 hours after activation with TCR signal deprivation, read within 24-48 hours
  percentage of cells expressing Foxp3: 26.9±11.4%
[1]; serum free AIM-V medium, without anti TGFβ and SB431542, 24-48 hours / 2 days
  Foxp3 expression in control cultures, TCR signal deprived cultures subtracted: 21.5±4.0%
S6 ribosomal protein
  S6 phosphorylation (pS6): completely removed
